# According to patent publication US6706740B2, “Fungicidal heterocyclic aromatic amides and their compositions, methods of use and preparation” (Dow AgroSciences LLC, priority 1999, dated 2004):
# Assays:
# [1] = test system: Puccinia recondita—PUCCRT; assay: Brown Rust of Wheat, in vivo whole plant, 24 Hour Protectant; conditions: Puccinia; 100 ppm spray, wheat, 24 hour protectant; control of fungal infection vs untreated plants; read-out: PUCCRT in vivo 1 Day Protectant
# [2] = test system: Mycosphaerella graminicola (Septoria tritici—SEPTTR); assay: In vitro fungal growth inhibition, Mycosphaerella graminicola (SEPTTR); assay type: cell-based; conditions: Zymoseptoria tritici; 25 ppm in growth medium; read-out: SEPTTR in vitro Growth Inhibition
# [3] = test system: Stagonospora nodorum (Leptosphaeria nodorum—LEPTNO); assay: In vitro fungal growth inhibition, Stagonospora nodorum (LEPTNO); assay type: cell-based; conditions: Leptosphaeria; 25 ppm in growth medium; read-out: LEPTNO in vitro Growth Inhibition
# [4] = test system: Magnaporthe grisea (Pyricularia oryzae—PYRIOR); assay: microbe, parasite or virus in culture; assay type: cell-based; conditions: Pyricularia oryzae, read-out: PYRIOR in vitro Growth Inhibition
# Erysiphe graminis—ERYSGT = assay: Powdery Mildew of Wheat, in vivo whole plant, 24 Hour Protectant; conditions: 100 ppm spray, wheat, 24 hour protectant, control of fungal infection vs untreated plants; for pest or weed control at 100 ppm: Erysiphe, read-out: ERYSGT in vivo 1 Day Protectant
# [5] = test system: Rhizoctonia solani (RHIZSO); assay: microbe, parasite or virus in culture; assay type: cell-based; conditions: Rhizoctonia solani, read-out: RHIZSO in vitro Growth Inhibition
# Septoria tritici—SEPTTR = assay: Leaf Blotch of Wheat, in vivo whole plant, 24 Hour Protectant; conditions: Zymoseptoria tritici, 24 h, 100 ppm spray, wheat, 24 hour protectant; control of fungal infection vs untreated plants; read-out: SEPTTR in vivo 1 Day Protectant
# [6] = test system: Leptosphaeria nodorum—LEPTNO; assay: Glume Blotch of Wheat, in vivo whole plant, 24 Hour Protectant; conditions: 100 ppm spray, wheat, 24 hour protectant, control of fungal infection vs untreated plants; for pest or weed control at 100 ppm: Leptosphaeria, read-out: LEPTNO in vivo 1 Day Protectant
# Ustilago maydis (USTIMA) = assay: microbe, parasite or virus in culture; assay type: cell-based; conditions: Mycosarcoma maydis, read-out: USTIMA in vitro Growth Inhibition
# [7] = test system: Phytophthora infestans (PHYTIN); assay: microbe, parasite or virus in culture; assay type: cell-based; conditions: Phytophthora infestans, read-out: PHYTIN in vitro Growth Inhibition
# [8] = test system: Phytophthora infestans—PHYTIN; assay: whole plant or invertebrate; assay type: in vivo; conditions: Phytophthora, in Solanum lycopersicum, 24 h, read-out: PHYTIN in vivo 1 Day Protectant
Compound,pest or weed control at 100 ppm [1],inhibition at 25 ppm [2],inhibition at 25 ppm [3],inhibition at 25 ppm [4],melting point,pest or weed control at 100 ppm (Erysiphe graminis—ERYSGT),inhibition at 25 ppm [5],pest or weed control at 100 ppm (Septoria tritici—SEPTTR),pest or weed control at 100 ppm [6],inhibition at 25 ppm (Ustilago maydis (USTIMA)),inhibition at 25 ppm [7],pest or weed control at 100 ppm [8],ERYSGT in vivo 1 Day Protectant (Erysiphe graminis—ERYSGT),LEPTNO in vivo 1 Day Protectant [6]
COc1ccnc(C(=O)NC2COC(=O)[C@H]3CCCC[C@@H]3C(=O)OC2)c1O [Compound 377],< 25%,< 80%,< 80%,< 80%,234 to 235 °C,< 25%,< 80%,< 25%,25 to 74%,< 80%,> 80%,< 25%,,
COc1ccnc(C(=O)N[C@H]2CC(=O)OCC(NC(=O)OC(C)(C)C)COC2=O)c1O (stereo partly drawn) [Compound 379],25 to 74%,< 80%,< 80%,< 80%,118 to 121 °C,25 to 74%,< 80%,25 to 74%,25 to 74%,< 80%,< 80%,< 25%,,
COc1ccnc(C(=O)NC2COC(=O)CC3(CCCCC3)CC(=O)OC2)c1O [Compound 380],< 25%,< 80%,< 80%,< 80%,107 to 108 °C,25 to 74%,< 80%,< 25%,25 to 74%,< 80%,< 80%,< 25%,,
COc1ccnc(C(=O)N[C@H]2COC(=O)[C@H](Cc3ccccc3)[C@@H](OCC(C)C)[C@H](C)OC2=O)c1O [Compound 384],25 to 74%,> 80%,> 80%,> 80%,172 to 174 °C,,< 80%,25 to 74%,,< 80%,< 80%,< 25%,+ +,+ +
COc1ccnc(C(=O)N[C@H]2COC(=O)[C@H](Cc3ccccc3)[C@@H](OC(C)=O)[C@H](C)OC2=O)c1O [Compound 385],25 to 74%,> 80%,> 80%,< 80%,194 to 196 °C,< 25%,< 80%,25 to 74%,,< 80%,< 80%,25 to 74%,,+ +
COc1ccnc(C(=O)N[C@H]2COC(=O)[C@H](Cc3ccccc3)[C@@H](OC(=O)C(C)(C)C)[C@H](C)OC2=O)c1O [Compound 388],25 to 74%,> 80%,> 80%,< 80%,212 to 214 °C,< 25%,< 80%,25 to 74%,,< 80%,< 80%,< 25%,,+ +
COc1ccnc(C(=O)N[C@H]2COC(=O)[C@H](Cc3ccccc3)[C@@H](OC(=O)c3ccccc3)[C@H](C)OC2=O)c1O [Compound 394],25 to 74%,> 80%,> 80%,< 80%,181 to 185 °C,< 25%,< 80%,25 to 74%,,< 80%,< 80%,< 25%,,+ +
COc1ccnc(C(=O)N[C@H]2COC(=O)[C@H](CC3CCCC3)[C@@H](OC(=O)C(C)C)[C@H](C)OC2=O)c1O [Compound 402],25 to 74%,< 80%,> 80%,< 80%,182 to 184 °C,,< 80%,25 to 74%,,< 80%,< 80%,< 25%,+ +,+ +
COc1ccnc(C(=O)N[C@H]2COC(=O)[C@H](Oc3ccccc3)[C@@H](OC(=O)C(C)C)[C@H](C)OC2=O)c1O [Compound 403],25 to 74%,> 80%,> 80%,< 80%,194 to 195 °C,< 25%,< 80%,25 to 74%,,< 80%,< 80%,< 25%,,+ +
COc1ccnc(C(=O)Nc2ccc(Cc3cccc(C(F)(F)F)c3)cc2)c1O [Compound 404],25 to 74%,< 80%,< 80%,< 80%,126 to 127 °C,25 to 74%,< 80%,25 to 74%,25 to 74%,> 80%,< 80%,< 25%,,
COc1ccnc(C(=O)Nc2ccc(Nc3cccc(C(F)(F)F)c3)cc2)c1O [Compound 410],< 25%,< 80%,< 80%,< 80%,204 to 205 °C,< 25%,< 80%,< 25%,25 to 74%,< 80%,< 80%,< 25%,,
COCc1cc(Oc2ccc(C(F)(F)F)cc2)ccc1NC(=O)c1nccc(OC)c1O [Compound 426],25 to 74%,> 80%,> 80%,> 80%,125 to 127 °C,25 to 74%,> 80%,25 to 74%,< 25%,> 80%,> 80%,25 to 74%,,
